Measured values as given in the NIST ThermoML archive (doi:10.1021/je030173e).

Columns and labels:
[1] = xn = mol fraction of the nth substance listed

COCCOCCOCCO [2-[2-(2-methoxyethoxy)ethoxy]ethanol] + O
surface tension liquid-gas [mN/m], [1]
Settings | x1 = 0.0564 | x1 = 0.0964 | x1 = 0.1673 | x1 = 0.3525 | x1 = 0.474 | x1 = 0.5536 | x1 = 0.6606 | x1 = 0.7512 | x1 = 0.8736 | x1 = 1
298.15 K | 54.62 | 47.43 | 41.73 | 40.45 | 39.1 | 37.76 | 37.13 | 36.91 | 36.69 | 36.28
308.15 K | 53.11 | 45.98 | 40.46 | 39.45 | 38.29 | 37.04 | 36.49 | 36.35 | 36.18 | 35.79
318.15 K | 51.53 | 44.95 | 39.01 | 38.12 | 37.42 | 36.12 | 35.85 | 35.46 | 35.29 | 35.21

COCCOC [1,2-dimethoxyethane]
Settings | surface tension liquid-gas [mN/m]
298.15 K | 23.79
308.15 K | 22.91
318.15 K | 21.89

COCCOCCOCCO [2-[2-(2-methoxyethoxy)ethoxy]ethanol]
Settings | surface tension liquid-gas [mN/m]
298.15 K | 36.28
308.15 K | 35.79
318.15 K | 35.21

O [water] + COCCOCCOCCO
[1], x2 = 0
Settings | surface tension liquid-gas [mN/m]
298.15 K | 71.99
308.15 K | 70.38
318.15 K | 68.82

COCCOCCO [2-(2-methoxyethoxy)ethanol] + O
surface tension liquid-gas [mN/m], [1]
Settings | 298.15 K | 308.15 K | 318.15 K
x1 = 0.0374 | 58.57 | 57.12 | 55.97
x1 = 0.0558 | 55.28 | 53.9 | 52.21
x1 = 0.1191 | 45.14 | 43.86 | 43.13
x1 = 0.1951 | 41.05 | 39.78 | 38.96
x1 = 0.3021 | 40.02 | 38.8 | 38.55
x1 = 0.4427 | 38.27 | 37.12 | 36.31
x1 = 0.491 | 37.57 | 36.46 | 35.26
x1 = 0.5502 | 36.87 | 35.92 | 34.53
x1 = 0.7494 | 35.37 | 34.49 | 33.45
x1 = 0.8564 | 35.02 | 34.18 | 33.12
x1 = 1 | 34.73 | 33.91 | 32.95

O [water] + COCCOC
[1], x2 = 0
Settings | surface tension liquid-gas [mN/m]
298.15 K | 71.99
308.15 K | 70.38
318.15 K | 68.82

O [water]
Settings | surface tension liquid-gas [mN/m]
298.15 K | 71.99
308.15 K | 70.38
318.15 K | 68.82

COCCOC [1,2-dimethoxyethane] + O
surface tension liquid-gas [mN/m], [1]
Settings | x1 = 0.047 | x1 = 0.066 | x1 = 0.0759 | x1 = 0.1286 | x1 = 0.1942 | x1 = 0.2612 | x1 = 0.4132 | x1 = 0.6313 | x1 = 1
298.15 K | 48.35 | 42.42 | 40.62 | 31.96 | 28.55 | 27.81 | 26.08 | 25.41 | 23.79
308.15 K | 46.83 | 40.97 | 39.26 | 30.69 | 27.43 | 26.81 | 25.12 | 24.49 | 22.91
318.15 K | 46.47 | 40.62 | 37.71 | 29.26 | 26.53 | 25.92 | 24.78 | 23.6 | 21.89

COCCOCCO [2-(2-methoxyethoxy)ethanol]
Settings | surface tension liquid-gas [mN/m]
298.15 K | 34.73
308.15 K | 33.91
318.15 K | 32.95

O [water] + COCCOCCO
[1], x2 = 0
Settings | surface tension liquid-gas [mN/m]
298.15 K | 71.99
308.15 K | 70.38
318.15 K | 68.82

O [water] + COCCO
[1], x2 = 0
Settings | surface tension liquid-gas [mN/m]
298.15 K | 71.99
308.15 K | 70.38
318.15 K | 68.82

COCCO [2-methoxyethan-1-ol] + O
surface tension liquid-gas [mN/m], [1]
Settings | 298.15 K | 308.15 K | 318.15 K
x1 = 0.0509 | 56.33 | 55.17 | 53.9
x1 = 0.0559 | 55.11 | 54.04 | 52.82
x1 = 0.1052 | 46.86 | 45.88 | 44.8
x1 = 0.1494 | 43.31 | 42.37 | 41.35
x1 = 0.2215 | 39.7 | 38.81 | 37.83
x1 = 0.3373 | 36.75 | 35.89 | 34.92
x1 = 0.4783 | 35.02 | 34.18 | 33.22
x1 = 0.6258 | 32.91 | 32.02 | 31.13
x1 = 0.7814 | 31.78 | 30.96 | 30.02
x1 = 0.8912 | 31.02 | 30.21 | 29.28
x1 = 1 | 30.82 | 30.02 | 29.1

COCCO [2-methoxyethan-1-ol]
Settings | surface tension liquid-gas [mN/m]
298.15 K | 30.82
308.15 K | 30.02
318.15 K | 29.1
